Measurements taken from BigSolDB 2.1.

Q: Which solubility (mole fraction) (in acetone, 295.15 K) does the source give for `C[C@@H]1CC[C@@]2(OC1)O[C@H]1C[C@H]3[C@@H]4CC=C5C[C@@H](O)CC[C@]5(C)[C@H]4CC[C@]3(C)[C@H]1[C@@H]2C` here?
A: The solubility (mole fraction) was 0.000904.

Q: And the solubility (mole fraction) (in acetone, 302.15 K)?
A: The solubility (mole fraction) was 0.00115.

Q: What about the solubility (mole fraction) (in acetone, 304.65 K) of the same molecule?
A: Its solubility (mole fraction) is 0.00127.

Q: And the solubility (mole fraction) (in acetone, 308.15 K)?
A: Its solubility (mole fraction) is 0.0014.

Q: And the solubility (mole fraction) (in acetone, 310.15 K)?
A: Its solubility (mole fraction) is 0.00149.

Q: What about the solubility (mole fraction) (in acetone, 312.15 K) of the same molecule?
A: Its solubility (mole fraction) is 0.00159.

Q: And the solubility (mole fraction) (in acetone, 313.65 K)?
A: The solubility (mole fraction) was 0.0017.

Q: What about the solubility (mole fraction) (in acetone, 315.65 K) of the same molecule?
A: The solubility (mole fraction) was 0.00184.

Q: And the solubility (mole fraction) (in acetone, 317.15 K)?
A: The solubility (mole fraction) was 0.00194.

Q: What about the solubility (mole fraction) (in acetone, 319.15 K) of the same molecule?
A: The solubility (mole fraction) was 0.00204.

Q: And the solubility (mole fraction) (in acetone, 321.15 K)?
A: The solubility (mole fraction) was 0.00217.

Q: What about the solubility (mole fraction) (in acetone, 322.65 K) of the same molecule?
A: The solubility (mole fraction) was 0.0023.

Q: What about the solubility (mole fraction) (in acetone, 324.65 K) of the same molecule?
A: The solubility (mole fraction) was 0.00243.

Q: And the solubility (mole fraction) (in acetone, 326.65 K)?
A: Its solubility (mole fraction) is 0.00256.

Q: What about the solubility (mole fraction) (in acetone, 327.65 K) of the same molecule?
A: The solubility (mole fraction) was 0.00267.

Q: What about the solubility (mole fraction) (in acetone, 329.15 K) of the same molecule?
A: The solubility (mole fraction) was 0.00279.

Q: What about the solubility (mole fraction) (in acetone, 330.15 K) of the same molecule?
A: The solubility (mole fraction) was 0.00292.

Q: And the solubility (mole fraction) (in acetone, 332.15 K)?
A: Its solubility (mole fraction) is 0.00303.

Q: And the solubility (mole fraction) (in ethanol, 299.15 K)?
A: The solubility (mole fraction) was 0.00133.

Q: And the solubility (mole fraction) (in ethanol, 303.15 K)?
A: Its solubility (mole fraction) is 0.00144.

Q: What about the solubility (mole fraction) (in ethanol, 306.15 K) of the same molecule?
A: Its solubility (mole fraction) is 0.00153.

Q: And the solubility (mole fraction) (in ethanol, 308.65 K)?
A: The solubility (mole fraction) was 0.00161.

Q: What about the solubility (mole fraction) (in ethanol, 311.65 K) of the same molecule?
A: Its solubility (mole fraction) is 0.00169.

Q: And the solubility (mole fraction) (in ethanol, 313.65 K)?
A: Its solubility (mole fraction) is 0.00175.

Q: What about the solubility (mole fraction) (in ethanol, 315.65 K) of the same molecule?
A: The solubility (mole fraction) was 0.00184.

Q: What about the solubility (mole fraction) (in ethanol, 317.15 K) of the same molecule?
A: Its solubility (mole fraction) is 0.00193.

Q: And the solubility (mole fraction) (in ethanol, 319.15 K)?
A: The solubility (mole fraction) was 0.002.

Q: What about the solubility (mole fraction) (in ethanol, 320.65 K) of the same molecule?
A: The solubility (mole fraction) was 0.00208.

Q: And the solubility (mole fraction) (in ethanol, 322.65 K)?
A: Its solubility (mole fraction) is 0.00215.

Q: And the solubility (mole fraction) (in ethanol, 324.15 K)?
A: Its solubility (mole fraction) is 0.00224.

Q: What about the solubility (mole fraction) (in ethanol, 326.15 K) of the same molecule?
A: The solubility (mole fraction) was 0.00233.

Q: What about the solubility (mole fraction) (in ethanol, 327.65 K) of the same molecule?
A: The solubility (mole fraction) was 0.00241.

Q: What about the solubility (mole fraction) (in ethanol, 328.65 K) of the same molecule?
A: The solubility (mole fraction) was 0.00249.

Q: What about the solubility (mole fraction) (in ethanol, 329.65 K) of the same molecule?
A: Its solubility (mole fraction) is 0.00258.

Q: What about the solubility (mole fraction) (in ethanol, 330.65 K) of the same molecule?
A: Its solubility (mole fraction) is 0.00268.

Q: What about the solubility (mole fraction) (in ethanol, 331.65 K) of the same molecule?
A: Its solubility (mole fraction) is 0.00276.

Q: And the solubility (mole fraction) (in ethanol, 332.65 K)?
A: The solubility (mole fraction) was 0.00284.

Q: And the solubility (mole fraction) (in ethyl acetate, 300.65 K)?
A: The solubility (mole fraction) was 0.0024.

Q: What about the solubility (mole fraction) (in ethyl acetate, 302.15 K) of the same molecule?
A: Its solubility (mole fraction) is 0.00258.

Q: What about the solubility (mole fraction) (in ethyl acetate, 303.15 K) of the same molecule?
A: Its solubility (mole fraction) is 0.00276.

Q: What about the solubility (mole fraction) (in ethyl acetate, 303.65 K) of the same molecule?
A: Its solubility (mole fraction) is 0.00294.

Q: And the solubility (mole fraction) (in ethyl acetate, 305.15 K)?
A: Its solubility (mole fraction) is 0.00317.

Q: What about the solubility (mole fraction) (in ethyl acetate, 307.15 K) of the same molecule?
A: The solubility (mole fraction) was 0.00338.

Q: And the solubility (mole fraction) (in ethyl acetate, 308.65 K)?
A: Its solubility (mole fraction) is 0.0036.

Q: And the solubility (mole fraction) (in ethyl acetate, 310.65 K)?
A: Its solubility (mole fraction) is 0.00383.

Q: What about the solubility (mole fraction) (in ethyl acetate, 311.65 K) of the same molecule?
A: The solubility (mole fraction) was 0.00402.

Q: And the solubility (mole fraction) (in ethyl acetate, 313.65 K)?
A: Its solubility (mole fraction) is 0.00423.

Q: And the solubility (mole fraction) (in ethyl acetate, 315.65 K)?
A: The solubility (mole fraction) was 0.00447.

Q: What about the solubility (mole fraction) (in ethyl acetate, 316.65 K) of the same molecule?
A: The solubility (mole fraction) was 0.00466.

Q: What about the solubility (mole fraction) (in ethyl acetate, 318.15 K) of the same molecule?
A: Its solubility (mole fraction) is 0.00492.

Q: And the solubility (mole fraction) (in ethyl acetate, 320.15 K)?
A: Its solubility (mole fraction) is 0.00523.

Q: What about the solubility (mole fraction) (in ethyl acetate, 321.65 K) of the same molecule?
A: Its solubility (mole fraction) is 0.00545.

Q: And the solubility (mole fraction) (in ethyl acetate, 323.15 K)?
A: The solubility (mole fraction) was 0.00577.

Q: What about the solubility (mole fraction) (in ethyl acetate, 324.65 K) of the same molecule?
A: The solubility (mole fraction) was 0.00602.

Q: What about the solubility (mole fraction) (in ethyl acetate, 326.65 K) of the same molecule?
A: The solubility (mole fraction) was 0.00628.

Q: And the solubility (mole fraction) (in ethyl acetate, 327.65 K)?
A: Its solubility (mole fraction) is 0.0065.

Q: And the solubility (mole fraction) (in ethyl acetate, 328.95 K)?
A: Its solubility (mole fraction) is 0.00673.

Q: And the solubility (mole fraction) (in isopropanol, 293.15 K)?
A: The solubility (mole fraction) was 0.000835.

Q: And the solubility (mole fraction) (in isopropanol, 296.65 K)?
A: The solubility (mole fraction) was 0.000975.

Q: And the solubility (mole fraction) (in isopropanol, 300.65 K)?
A: The solubility (mole fraction) was 0.00111.

Q: What about the solubility (mole fraction) (in isopropanol, 303.15 K) of the same molecule?
A: Its solubility (mole fraction) is 0.00123.

Q: And the solubility (mole fraction) (in isopropanol, 304.65 K)?
A: Its solubility (mole fraction) is 0.00134.

Q: What about the solubility (mole fraction) (in isopropanol, 306.65 K) of the same molecule?
A: The solubility (mole fraction) was 0.00145.

Q: And the solubility (mole fraction) (in isopropanol, 308.65 K)?
A: Its solubility (mole fraction) is 0.00157.

Q: What about the solubility (mole fraction) (in isopropanol, 311.15 K) of the same molecule?
A: The solubility (mole fraction) was 0.00167.

Q: What about the solubility (mole fraction) (in isopropanol, 314.65 K) of the same molecule?
A: Its solubility (mole fraction) is 0.00178.

Q: And the solubility (mole fraction) (in isopropanol, 317.15 K)?
A: The solubility (mole fraction) was 0.00192.

Q: And the solubility (mole fraction) (in isopropanol, 319.15 K)?
A: The solubility (mole fraction) was 0.00203.

Q: What about the solubility (mole fraction) (in isopropanol, 321.15 K) of the same molecule?
A: Its solubility (mole fraction) is 0.00216.

Q: And the solubility (mole fraction) (in isopropanol, 324.65 K)?
A: Its solubility (mole fraction) is 0.0023.

Q: And the solubility (mole fraction) (in isopropanol, 326.15 K)?
A: The solubility (mole fraction) was 0.00241.

Q: What about the solubility (mole fraction) (in isopropanol, 328.15 K) of the same molecule?
A: The solubility (mole fraction) was 0.00253.

Q: And the solubility (mole fraction) (in isopropanol, 330.15 K)?
A: Its solubility (mole fraction) is 0.00267.

Q: What about the solubility (mole fraction) (in isopropanol, 332.15 K) of the same molecule?
A: Its solubility (mole fraction) is 0.00282.

Q: What about the solubility (mole fraction) (in methanol, 291.15 K) of the same molecule?
A: The solubility (mole fraction) was 0.000187.

Q: What about the solubility (mole fraction) (in methanol, 298.15 K) of the same molecule?
A: The solubility (mole fraction) was 0.000257.

Q: What about the solubility (mole fraction) (in methanol, 300.15 K) of the same molecule?
A: Its solubility (mole fraction) is 0.000325.

Q: What about the solubility (mole fraction) (in methanol, 308.15 K) of the same molecule?
A: The solubility (mole fraction) was 0.000401.

Q: What about the solubility (mole fraction) (in methanol, 312.65 K) of the same molecule?
A: The solubility (mole fraction) was 0.000469.

Q: What about the solubility (mole fraction) (in methanol, 315.15 K) of the same molecule?
A: The solubility (mole fraction) was 0.00051.

Q: What about the solubility (mole fraction) (in methanol, 317.65 K) of the same molecule?
A: The solubility (mole fraction) was 0.000556.

Q: And the solubility (mole fraction) (in methanol, 319.65 K)?
A: Its solubility (mole fraction) is 0.0006.

Q: What about the solubility (mole fraction) (in methanol, 322.15 K) of the same molecule?
A: The solubility (mole fraction) was 0.000643.

Q: What about the solubility (mole fraction) (in methanol, 323.65 K) of the same molecule?
A: Its solubility (mole fraction) is 0.000694.

Q: What about the solubility (mole fraction) (in methanol, 325.65 K) of the same molecule?
A: The solubility (mole fraction) was 0.000743.

Q: What about the solubility (mole fraction) (in methanol, 327.15 K) of the same molecule?
A: Its solubility (mole fraction) is 0.000795.

Q: What about the solubility (mole fraction) (in methanol, 328.15 K) of the same molecule?
A: Its solubility (mole fraction) is 0.000847.

Q: And the solubility (mole fraction) (in methanol, 329.15 K)?
A: The solubility (mole fraction) was 0.00091.

Q: And the solubility (mole fraction) (in methanol, 331.65 K)?
A: The solubility (mole fraction) was 0.000994.

Q: What about the solubility (mole fraction) (in n-propyl acetate, 296.15 K) of the same molecule?
A: The solubility (mole fraction) was 0.0021.

Q: And the solubility (mole fraction) (in n-propyl acetate, 300.15 K)?
A: Its solubility (mole fraction) is 0.00263.

Q: And the solubility (mole fraction) (in n-propyl acetate, 306.65 K)?
A: The solubility (mole fraction) was 0.00313.

Q: And the solubility (mole fraction) (in n-propyl acetate, 307.15 K)?
A: Its solubility (mole fraction) is 0.00321.

Q: And the solubility (mole fraction) (in n-propyl acetate, 310.15 K)?
A: Its solubility (mole fraction) is 0.00356.

Q: What about the solubility (mole fraction) (in n-propyl acetate, 314.65 K) of the same molecule?
A: Its solubility (mole fraction) is 0.00402.

Q: What about the solubility (mole fraction) (in n-propyl acetate, 317.65 K) of the same molecule?
A: Its solubility (mole fraction) is 0.00442.

Q: What about the solubility (mole fraction) (in n-propyl acetate, 319.65 K) of the same molecule?
A: The solubility (mole fraction) was 0.0047.

Q: What about the solubility (mole fraction) (in n-propyl acetate, 322.15 K) of the same molecule?
A: The solubility (mole fraction) was 0.00495.

Q: What about the solubility (mole fraction) (in n-propyl acetate, 323.65 K) of the same molecule?
A: The solubility (mole fraction) was 0.0053.

Q: What about the solubility (mole fraction) (in n-propyl acetate, 325.15 K) of the same molecule?
A: The solubility (mole fraction) was 0.00543.

Q: And the solubility (mole fraction) (in n-propyl acetate, 327.15 K)?
A: The solubility (mole fraction) was 0.00575.

Q: And the solubility (mole fraction) (in n-propyl acetate, 328.65 K)?
A: The solubility (mole fraction) was 0.00616.

Q: What about the solubility (mole fraction) (in n-propyl acetate, 329.15 K) of the same molecule?
A: Its solubility (mole fraction) is 0.00612.
